Consider 3 compounds from patent US20240173333A1, “Treating Alagille Syndrome (ALGS)” (priority 2022, published 2024).

One series relates to patients with ALGS. To be noted: cited from earlier work.
Series [1] can be described thus: Water content and water uptake of crystal modification 1 with relative humidity. The format is physicochemical. The text has this:
Crystal modification 1 contains void volumes that are capable of containing up to about 2 moles of water associated with the crystal per mole of odevixibat, depending on the relative humidity. This form is therefore formally a channel hydrate. At about 30% relative humidity, however, crystal modification 1 contains a substantially stoichiometric amount of about 1.5 moles of water per mole of organic compound and is thus a sesquihydrate. The substantially stoichiometric amount of water is considered advantageous, as the water content of the crystals remains substantially constant even with humidity changes within the normal relative humidity range of about 30% to about 70% RH.
Whereas crystal modification 1 is a sesquihydrate containing about 3.5% (w/w) water at about 30% relative humidity (based on the total crystal weight), it has been observed that the crystal can take up an additional 1.5% (w/w) water when the humidity is increased up to 95% RH. The sorption and desorption of this additional water is fully reversible. The additional water may be adsorbed on the surface or may further fill the channels of the structure. […]

Read-outs that look alike come from different tables or passages of the source.

As to `CCCCC1(CCCC)CS(=O)(=O)c2ccc(N(C)C)cc2[C@@H](c2ccc(OCc3ccc(C[N+]45CCN(CC4)CC5)cc3)cc2)[C@H]1O` [maralixibat], the transaminase levels result with patients with ALGS (patients with ALGS) is recorded as “Elevations in transaminase levels have been reported”. As to cholestyramine, the transaminase levels result in the series with patients with ALGS (human, in vivo) was “Elevations in transaminase levels have been reported”.

Turning to `CCCCC1(CCCC)CN(c2ccccc2)c2cc(SC)c(OCC(=O)N[C@@H](C(=O)N[C@@H](CC)C(=O)O)c3ccc(O)cc3)cc2S(=O)(=O)N1` [crystal modification 1], the “water content (based on the total crystal weight)” value in series [1] (about 30% relative humidity) was “about 3.5 % (w/w)”. The “additional water taken up” value in series [1] (humidity increased up to 95% RH, fully reversible) was 1.5 % (w/w).
